This note sets out measurements from BindingDB's records for patent US12065399 (Hoffmann-La Roche, 2024).

The target of the test is Metabotropic glutamate receptor 4 (Homo sapiens, UniProt Q14833). As to the kind of experiment: Intracellular Ca2+ Mobilization Assay (FLIPR). Here is the method: A monoclonal HEK-293 cell line stably transfected with a cDNA encoding for the human mGlu4 receptor was generated. Cells were cultured according to standard protocols (Freshney, 2000) in Dulbecco's Modified Eagle Medium with high glucose supplemented with 1 mM glutamine, 10% (vol/vol) heat-inactivated bovine calf serum, penicillin/streptomycin, 50 μg/ml hygromycin and 15 μg/ml blasticidin (all cell culture reagents and antibiotics from Invitrogen, Basel, Switzerland).About 24 hrs before an experiment, 5×10^4 cells/well were seeded in poly-D-lysine coated, black/clear-bottomed 96-well plates. The cells were loaded with 2.5 μM Fluo-4AM in loading buffer (1×HBSS, 20 mM HEPES) for 1 hr at 37° C. and washed five times with loading buffer. The cells were transferred into a Functional Drug Screening System 7000 (Hamamatsu, Paris, France), and 11 half logarithmic serial dilutions of test compound at 37° C. were added and the cells were incubated for 10-30 min. with on-line recording of fluorescence. […]
Chain of Metabotropic glutamate receptor 4 (Q14833 whole entry): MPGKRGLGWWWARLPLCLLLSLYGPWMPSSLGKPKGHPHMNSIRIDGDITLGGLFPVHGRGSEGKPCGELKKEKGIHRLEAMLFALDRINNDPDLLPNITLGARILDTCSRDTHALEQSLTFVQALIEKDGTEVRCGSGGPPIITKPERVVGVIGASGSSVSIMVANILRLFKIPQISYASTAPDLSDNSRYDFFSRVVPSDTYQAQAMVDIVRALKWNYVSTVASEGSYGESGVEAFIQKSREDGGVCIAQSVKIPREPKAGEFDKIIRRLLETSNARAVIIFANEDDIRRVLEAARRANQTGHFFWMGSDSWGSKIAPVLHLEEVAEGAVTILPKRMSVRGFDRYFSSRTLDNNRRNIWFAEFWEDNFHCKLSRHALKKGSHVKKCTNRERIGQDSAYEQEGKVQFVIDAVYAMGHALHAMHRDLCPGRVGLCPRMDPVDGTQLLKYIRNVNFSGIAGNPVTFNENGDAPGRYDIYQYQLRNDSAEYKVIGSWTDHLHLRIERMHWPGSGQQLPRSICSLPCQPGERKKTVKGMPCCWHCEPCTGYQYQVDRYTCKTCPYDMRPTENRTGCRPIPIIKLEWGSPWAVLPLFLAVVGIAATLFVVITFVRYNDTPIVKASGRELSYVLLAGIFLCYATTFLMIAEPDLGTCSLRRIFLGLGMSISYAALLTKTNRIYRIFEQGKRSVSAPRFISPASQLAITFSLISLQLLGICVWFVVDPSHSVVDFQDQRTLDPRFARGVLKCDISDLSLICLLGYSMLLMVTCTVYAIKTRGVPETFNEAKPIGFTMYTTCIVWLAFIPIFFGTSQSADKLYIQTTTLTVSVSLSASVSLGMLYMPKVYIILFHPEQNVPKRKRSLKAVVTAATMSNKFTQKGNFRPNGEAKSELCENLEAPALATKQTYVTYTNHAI

`CC(C)(C)c1cnn(-c2cc(F)c(NS(=O)(=O)c3cccc(Cl)c3Cl)c(F)c2)c1` [US12065399, Example 59] showed an EC50 of 9.28 µM.

What is called EC50 is the concentration at which the effect is half-maximal. Read a low EC50 as greater potency.
